Measurements as given in patent US11370763B2, “Compounds and compositions for treating conditions associated with NLRP activity” (Novartis AG, priority 2017, dated 2022).

Tested on: IL-1β production in PMA-differentiated THP-1 cells
Assay: IL-1β production in PMA-differentiated THP-1 cells stimulated with gramicidin (hTHP-1 assay containing 2% fetal bovine serum; Procedures 1-3)
Format: cell-based, human
Conditions: Homo sapiens, THP-1, hTHP-1 assay containing 2% fetal bovine serum; class symbols; read-out: hTHP-1 IC50 (Average IC50 of compounds in hTHP-1 assay)
Procedure, shortened: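 THP-1 cells differentiated with PMA (20 ng/ml, 16-18 h), replated in 2% FBS RPMI (50,000 cells/well), preincubated 1 h with compound (top final 100 μM, 3-fold steps, 0.37% DMSO), then stimulated 2 h with gramicidin (5 μM). Supernatant IL-1β measured by HTRF.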

Row | IC50 [nM] | Structure (SMILES)
1 | 5000 to 30000 | CC(C)c1cc(-n2cccn2)cc(C(C)C)c1CC(=O)N=S(N)(=O)c1cnc(C(C)(C)O)s1 (stereo not drawn) [Example 107, N-(amino(2-(2-hydroxypropan-2-yl)thiazol-5-yl)(oxo)-λ^6-sulfaneylidene)-2-(2,6-diisopropyl-4-(1H-pyrazol-1-yl)phenyl)acetamide]
2 | 40 to 200 | COCc1cc(C(C)C)c(CC(=O)N=S(N)(=O)c2cnc(C(C)(C)O)s2)c(C(C)C)c1 (stereo not drawn) [Example 108, N-(amino(2-(2-hydroxypropan-2-yl)thiazol-5-yl)(oxo)-λ^6-sulfaneylidene)-2-(2,6-diisopropyl-4-(methoxymethyl)phenyl) acetamide]
3 | 40 to 200 | COCc1cc(C(C)C)c(CC(=O)N=S(N)(=O)c2cnc(C(C)(C)O)s2)c(C(C)C)c1F (stereo not drawn) [Example 109, N-(amino(2-(2-hydroxypropan-2-yl)thiazol-5-yl)(oxo)-λ^6-sulfaneylidene)-2-(3-fluoro-2,6-diisopropyl-4-(methoxymethyl)phenyl) acetamide]
4 | 200 to 1000 | CC(C)c1cc(-c2ccc3ccccc3c2)cc(C(C)C)c1CC(=O)N=S(N)(=O)c1ncc(C(C)(C)O)s1 (stereo not drawn) [Example 110, N-(amino(5-(2-hydroxypropan-2-yl)thiazol-2-yl)(oxo)-λ^6-sulfaneylidene)-2-(2,6-diisopropyl-4-(naphthalen-2-yl)phenyl)acetamide]
5 | 40 to 200 | COCc1cc(C(C)C)c(CC(=O)N=S(N)(=O)c2ncc(C(C)(C)O)s2)c(C(C)C)c1 (stereo not drawn) [Example 111, N-(amino(5-(2-hydroxypropan-2-yl)thiazol-2-yl)(oxo)-λ^6-sulfaneylidene)-2-(2,6-diisopropyl-4-(methoxymethyl)phenyl) acetamide]
6 | 200 to 1000 | CC(C)c1cc(-c2ccc(Cl)c(Cl)c2)cc(C(C)C)c1CC(=O)N=S(N)(=O)c1cnc(C(C)(C)O)s1 (stereo not drawn) [Example 112, N-(amino(2-(2-hydroxypropan-2-yl)thiazol-5-yl)(oxo)-λ^6-sulfaneylidene)-2-(3′,4′-dichloro-3,5-diisopropyl-[1,1′-biphenyl]-4-yl)acetamide]
7 | 8 to 40 | CC(C)c1cc(-c2ccc3ccccc3c2)cc(C(C)C)c1CC(=O)N=S(N)(=O)c1cnc(C(C)(C)O)s1 (stereo not drawn) [Example 113, N-(amino(2-(2-hydroxypropan-2-yl)thiazol-5-yl)(oxo)-λ^6-sulfaneylidene)-2-(2,6-diisopropyl-4-(naphthalen-2-yl)phenyl)acetamide]
8 | 1000 to 5000 | CC(C)c1ccc(C#N)c(C(C)C)c1CC(=O)N=S(N)(=O)c1cnc(C(C)(C)O)s1 (stereo not drawn) [Example 114, N-(amino(2-(2-hydroxypropan-2-yl)thiazol-5-yl)(oxo)-λ^6-sulfaneylidene)-2-(3-cyano-2,6-diisopropylphenyl)acetamide]
9 | 200 to 1000 | CC(C)c1c(F)c(C#N)cc(C2CC2)c1CC(=O)N=S(N)(=O)c1sc(C(C)(C)O)nc1CO (stereo not drawn) [Example 115, N-(amino(4-(hydroxymethyl)-2-(2-hydroxypropan-2-yl)thiazol-5-yl)(oxo)-λ^6-sulfaneylidene)-2-(4-cyano-6-cyclopropyl-3-fluoro-2-isopropylphenyl)acetamide]
10 | 5000 to 30000 | COc1ccc2cc(-c3cc(C(C)C)c(CC(=O)N=S(N)(=O)c4cnc(C(C)(C)O)s4)c(C(C)C)c3)ccc2c1 (stereo not drawn) [Example 116, N-(amino(2-(2-hydroxypropan-2-yl)thiazol-5-yl)(oxo)-λ^6-sulfaneylidene)-2-(2,6-diisopropyl-4-(6-methoxynaphthalen-2-yl)phenyl)acetamide]
11 | 40 to 200 | CC(C)c1cc(-c2ccc3c(c2)OC(F)(F)O3)cc(C(C)C)c1CC(=O)N=S(N)(=O)c1ncc(C(C)(C)O)s1 (stereo not drawn) [Example 117, N-(amino(5-(2-hydroxypropan-2-yl)thiazol-2-yl)(oxo)-λ^6-sulfaneylidene)-2-(4-(2,2-difluorobenzo[d][1,3]dioxol-5-yl)-2,6-diisopropylphenyl)acetamide]
12 | 200 to 1000 | CC(C)c1cc(-c2ccc3c(c2)OC(F)(F)O3)cc(C(C)C)c1CC(=O)N=S(N)(=O)c1cnc(C(C)(C)O)s1 (stereo not drawn) [Example 118, N-(amino(2-(2-hydroxypropan-2-yl)thiazol-5-yl)(oxo)-λ^6-sulfaneylidene)-2-(4-(2,2-difluorobenzo[d][1,3]dioxol-5-yl)-2,6-diisopropylphenyl)acetamide]
13 | 200 to 1000 | CC(C)c1ccc(F)c(C(C)C)c1CC(=O)N=S(N)(=O)c1nc(C(C)(C)O)cs1 (stereo not drawn) [Example 119, N-(amino(4-(2-hydroxypropan-2-yl)thiazol-2-yl)(oxo)-λ^6-sulfaneylidene)-2-(3-fluoro-2,6-diisopropylphenyl)acetamide]
14 | 200 to 1000 | CC(C)c1ccc(C#N)c(C(C)C)c1CC(=O)N=S(N)(=O)c1nc(C(C)(C)O)cs1 (stereo not drawn) [Example 120, N-(amino(4-(2-hydroxypropan-2-yl)thiazol-2-yl)(oxo)-λ^6-sulfaneylidene)-2-(3-cyano-2,6-diisopropylphenyl)acetamide]
15 | 200 to 1000 | Cc1ccc(-c2cc(C(C)C)c(CC(=O)N=S(N)(=O)c3ncc(C(C)(C)O)s3)c(C(C)C)c2)cc1C (stereo not drawn) [Example 121, N-(amino(5-(2-hydroxypropan-2-yl)thiazol-2-yl)(oxo)-λ^6-sulfaneylidene)-2-(3,5-diisopropyl-3′,4′-dimethyl-[1,1′-biphenyl]-4-yl)acetamide]
16 | 200 to 1000 | CC(C)c1cc(-c2ccc(Cl)c(Cl)c2)cc(C(C)C)c1CC(=O)N=S(N)(=O)c1ncc(C(C)(C)O)s1 (stereo not drawn) [Example 122, N-(amino(5-(2-hydroxypropan-2-yl)thiazol-2-yl)(oxo)-λ^6-sulfaneylidene)-2-(3′,4′-dichloro-3,5-diisopropyl-[1,1′-biphenyl]-4-yl)acetamide]
17 | 200 to 1000 | CC(C)c1cc(C#N)c(F)c(C(C)C)c1CC(=O)N=S(N)(=O)c1cnc(C(C)(C)O)s1 (stereo not drawn) [Example 123, N-(amino(2-(2-hydroxypropan-2-yl)thiazol-5-yl)(oxo)-λ^6-sulfaneylidene)-2-(4-cyano-3-fluoro-2,6-diisopropylphenyl)acetamide]
18 | 200 to 1000 | CC(C)c1cc(F)c(F)c(C(C)C)c1CC(=O)N=S(N)(=O)c1nc(C(C)(C)O)cs1 (stereo not drawn) [Example 124, N-(amino(4-(2-hydroxypropan-2-yl)thiazol-2-yl)(oxo)-λ^6-sulfaneylidene)-2-(3,4-difluoro-2,6-diisopropylphenyl)acetamide]
19 | 200 to 1000 | CC(C)c1ccc(F)c(C(C)C)c1CC(=O)N=S(N)(=O)c1ccc(C(C)(C)O)s1 (stereo not drawn) [Example 125, N-(amino(5-(2-hydroxypropan-2-yl)thiophen-2-yl)(oxo)-λ^6-sulfaneylidene)-2-(3-fluoro-2,6-diisopropylphenyl)acetamide]
20 | 200 to 1000 | COc1ccc2cc(-c3cc(C(C)C)c(CC(=O)N=S(N)(=O)c4ncc(C(C)(C)O)s4)c(C(C)C)c3)ccc2c1 (stereo not drawn) [Example 126, N-(amino(5-(2-hydroxypropan-2-yl)thiazol-2-yl)(oxo)-λ^6-sulfaneylidene)-2-(2,6-diisopropyl-4-(6-methoxynaphthalen-2-yl)phenyl)acetamide]
21 | 5000 to 30000 | CC(C)c1cc(F)cc(C(C)C)c1CC(=O)N=S(N)(=O)c1ncc(C(C)(C)C(=O)O)s1 (stereo not drawn) [Example 127, 2-(2-(N′-(2-(4-fluoro-2,6-diisopropylphenyl)acetyl)sulfamidimidoyl)thiazol-5-yl)-2-methylpropanoic acid]
